How the values were obtained:
[1] = biological target: T1, human cloned CHRM4 receptor (M4_CHO cells) (Homo sapiens, UniProt P08173); assay: CHRM4 Ca++ Flux Assay (agonist mode, FDSS 7000EX); format: cell-based; details: for Emax: Percent Activity, read-out: M4 FDSS PA; for EC50: geometric mean if tested more than once, read-out: M4 FDSS EC50
T1 construct: expressed in transfected cells; host or cells: CHO-K1
T1 sequence (P08173 1-479): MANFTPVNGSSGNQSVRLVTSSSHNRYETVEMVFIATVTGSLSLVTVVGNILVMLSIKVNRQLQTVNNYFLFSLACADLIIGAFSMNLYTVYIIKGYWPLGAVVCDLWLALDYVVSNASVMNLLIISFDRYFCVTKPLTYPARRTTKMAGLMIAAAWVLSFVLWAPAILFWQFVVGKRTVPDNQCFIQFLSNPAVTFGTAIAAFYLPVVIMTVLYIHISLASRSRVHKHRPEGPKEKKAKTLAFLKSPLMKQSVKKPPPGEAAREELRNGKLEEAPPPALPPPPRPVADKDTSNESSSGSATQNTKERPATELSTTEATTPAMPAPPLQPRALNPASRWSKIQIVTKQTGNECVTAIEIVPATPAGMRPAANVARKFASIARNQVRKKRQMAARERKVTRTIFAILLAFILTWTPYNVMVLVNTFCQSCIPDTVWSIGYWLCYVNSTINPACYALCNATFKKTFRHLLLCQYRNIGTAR
Method in brief: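 Agonist-mode response was expressed as percent of the Carbachol EC100 and fitted with four-parameter nonlinear regression over an 11-point triplicate dose series. Intracellular Ca++ was tracked for 3 min by fluorescent dye in CHO-K1 cells stably expressing human CHRM4. Cells were preincubated 60 min with 20 μM ATP in buffer containing 2.5 mM probenecid.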

[2] = biological target: T2, Cloned human M1 receptor (CHRM1) stably expressed in HEK293 cells (Homo sapiens, UniProt P11229); assay: CHRM1 Ca++ Flux Assay (agonist mode, FDSS 7000EX); format: cell-based; details: for Emax: HEK293, Percent Activity, read-out: M1 FDSS PA; for EC50: geometric mean if tested more than once
T2 construct: expressed in transfected cells; host or cells: HEK293
T2 sequence (P11229 1-460): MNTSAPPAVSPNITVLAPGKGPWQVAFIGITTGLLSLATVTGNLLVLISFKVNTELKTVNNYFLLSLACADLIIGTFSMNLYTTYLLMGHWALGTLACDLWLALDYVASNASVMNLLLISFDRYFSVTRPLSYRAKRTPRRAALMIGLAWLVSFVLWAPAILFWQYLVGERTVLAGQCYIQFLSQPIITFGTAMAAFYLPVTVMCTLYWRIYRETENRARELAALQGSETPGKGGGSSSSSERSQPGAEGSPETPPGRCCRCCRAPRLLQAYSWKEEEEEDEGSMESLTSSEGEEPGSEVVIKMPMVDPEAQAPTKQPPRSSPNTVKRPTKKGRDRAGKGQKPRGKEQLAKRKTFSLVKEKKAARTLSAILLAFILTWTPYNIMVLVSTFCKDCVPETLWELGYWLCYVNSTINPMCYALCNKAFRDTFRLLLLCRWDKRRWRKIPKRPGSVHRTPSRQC
Method in brief: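 Compounds tested as agonists at 11 concentrations in triplicate, with calcium traces captured over 3 minutes. Cells were HEK293 with stable human CHRM1 expression, plated overnight at 25K/well and loaded with calcium dye. Responses normalized to carbachol EC100 and fitted by four-parameter nonlinear regression.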

`O=C(C1COC1)N1CC2(CC[C@@H](N3CCC(c4ccccc4OC4CCCC4)CC3)C2)C1` [Example 7G, (R)-(6-(4-(2-(cyclopentyloxy)phenyl)piperidin-1-yl)-2-azaspiro[3.4]octan-2-yl)(oxetan-3-yl)methanone] gave an Emax [1] of 61%, an EC50 [1] of 9 nM and an Emax [2] of 65%. For the same molecule, the EC50 [2] was 37 nM.
`O=C(C1COC1)N1CC2(CC[C@@H](N3CCC(c4ccccc4OCCC(F)(F)F)CC3)C2)C1` [Example 7GG, (R)-oxetan-3-yl(6-(4-(2-(3,3,3-trifluoropropoxy)phenyl)piperidin-1-yl)-2-azaspiro[3.4]octan-2-yl)methanone] showed an Emax [1] of 48%, an EC50 [1] of 7 nM and an Emax [2] of 91%. The EC50 [2] was 39 nM.
Molecule `O=C(C1COC1)N1CC2(CC[C@@H](N3CCC(c4ccccc4OC4CCC4)CC3)C2)C1` [Example 7H, (R)-(6-(4-(2-cyclobutoxyphenyl)piperidin-1-yl)-2-azaspiro[3.4]octan-2-yl)(oxetan-3-yl)methanone] has an Emax [1] of 70%, an EC50 [1] of 4 nM and an Emax [2] of 71%. For the same molecule, the EC50 [2] was 9 nM.
With `COC(C)(C)COc1ccccc1C1CCN([C@@H]2CCC3(C2)CN(C(=O)C2COC2)C3)CC1` [Example 7HH, (R)-(6-(4-(2-(2-methoxy-2-methylpropoxy)phenyl)piperidin-1-yl)-2-azaspiro[3.4]octan-2-yl)(oxetan-3-yl)methanone] the Emax [1] was 50%, the EC50 [1] was 19 nM and the Emax [2] was 82%. It also gave an EC50 [2] of 159 nM.
`O=C(C1COC1)N1CC2(CC[C@@H](N3CCC(c4ccccc4OCC4CC4)CC3)C2)C1` [Example 7I, (R)-(6-(4-(2-(cyclopropylmethoxy)phenyl)piperidin-1-yl)-2-azaspiro[3.4]octan-2-yl)(oxetan-3-yl)methanone] gave an Emax [1] of 55%, an EC50 [1] of 7 nM and an Emax [2] of 86%. It also gave an EC50 [2] of 15 nM.
For `O=C(C1COC1)N1CC2(CC[C@@H](N3CCC(c4ccccc4OCC4(C(F)(F)F)CC4)CC3)C2)C1` [Example 7II, (R)-oxetan-3-yl(6-(4-(2-((1-(trifluoromethyl)cyclopropyl)methoxy)phenyl)piperidin-1-yl)-2-azaspiro[3.4]octan-2-yl)methanone], the Emax [1] was 50%, the EC50 [1] was 9 nM and the Emax [2] was 89%. For the same molecule, the EC50 [2] was 103 nM.
For `O=C(C1COC1)N1CC2(CC[C@@H](N3CCC(c4ccccc4OCC(F)F)CC3)C2)C1` [Example 7JJ, (R)-(6-(4-(2-(2,2-difluoroethoxy)phenyl)piperidin-1-yl)-2-azaspiro[3.4]octan-2-yl)(oxetan-3-yl)methanone], the Emax [1] was 49%, the EC50 [1] was 2 nM and the Emax [2] was 87%. The EC50 [2] was 12 nM.
`CC(C)Oc1ccccc1C1CCN([C@@H]2CCC3(C2)CN(C(=O)C2COC2)C3)CC1` [Example 7K, (R)-(6-(4-(2-isopropoxyphenyl)piperidin-1-yl)-2-azaspiro[3.4]octan-2-yl)(oxetan-3-yl)methanone] gave an Emax [1] of 76%, an EC50 [1] of 9 nM and an Emax [2] of 72%. It also gave an EC50 [2] of 24 nM.
`O=C(C1COC1)N1CC2(CC[C@@H](N3CCC(c4ccccc4OCCC4COC4)CC3)C2)C1` [Example 7KK, (R)-oxetan-3-yl(6-(4-(2-(2-(oxetan-3-yl)ethoxy)phenyl)piperidin-1-yl)-2-azaspiro[3.4]octan-2-yl)methanone] gave an Emax [1] of 47%, an EC50 [1] of 2 nM and an Emax [2] of 80%. It also gave an EC50 [2] of 11 nM.
For `CC(C)(O)COc1ccccc1C1CCN([C@@H]2CCC3(C2)CN(C(=O)C2COC2)C3)CC1` [Example 7L, (R)-(6-(4-(2-(2-hydroxy-2-methylpropoxy)phenyl)piperidin-1-yl)-2-azaspiro[3.4]octan-2-yl)(oxetan-3-yl)methanone], the Emax [1] was 58%, the EC50 [1] was 20 nM and the Emax [2] was 85%. The EC50 [2] was 324 nM.
`O=C(C1COC1)N1CC2(CC[C@@H](N3CCC(c4ccccc4OC(F)(F)F)CC3)C2)C1` [Example 12A, (R)-oxetan-3-yl(6-(4-(2-(trifluoromethoxy)phenyl)piperidin-1-yl)-2-azaspiro[3.4]octan-2-yl)methanone] showed an Emax [1] of 73%, an EC50 [1] of 2 nM and an Emax [2] of 79%. It also gave an EC50 [2] of 8 nM.

Reference: US12122761B2, “2-azaspiro[3.4]octane derivatives as M4 agonists” (NOVARTIS AG, priority 2019, dated 2024)
